According to ChEMBL document CHEMBL1128933, “Structural comparison of alkylpolyamine analogues with potent in vitro antitumor or antiparasitic activity” (Bioorg Med Chem Lett, 1996):

Experiments:
Trypanosoma brucei [1] = experiment: Compound was evaluated for growth brucei K243 As-10-3 strain.; format: functional, organism-based
Trypanosoma brucei [2] = experiment: Compound was evaluated for growth brucei K243 strain.; format: functional, organism-based
Trypanosoma brucei [3] = experiment: Compound was evaluated for growth brucei K269 strain.; format: functional, organism-based
Trypanosoma brucei [4] = experiment: Compound was evaluated for growth brucei LAB 110 strain.; format: functional, organism-based
NCI-H157 = experiment: Compound was evaluated for inhibitory activity against H157 non-small cell lung carcinoma.; format: functional, cell-based; conditions: Homo sapiens
NCH82 = experiment: Compound was evaluated for inhibitory activity against H82 small cell lung carcinoma.; format: functional, cell-based; conditions: Homo sapiens

Question: With `C(CCCNCCCNCC1CCCCCC1)CCCNCCCNCC1CCCCCC1` as the compound, how does the IC50 (Trypanosoma brucei [1]) read?
Answer: 0.78 µM

Question: And the IC50 (Trypanosoma brucei [2])?
Answer: 0.98 µM

Question: What about the IC50 (Trypanosoma brucei [3]) of the same compound?
Answer: 0.69 µM

Question: What about the IC50 (Trypanosoma brucei [4]) of the same compound?
Answer: 0.125 µM

Question: What about the IC50 (NCI-H157) of the same compound?
Answer: 2.1 µM

Question: What about the IC50 (NCH82) of the same compound?
Answer: 1.5 µM

Question: With `CCNCCCNCCCCCCCNCCCNCC1CCCCCC1` as the compound, how does the IC50 (Trypanosoma brucei [1]) read?
Answer: 26.2 µM

Question: What about the IC50 (Trypanosoma brucei [2]) of the same compound?
Answer: 18.4 µM

Question: What about the IC50 (Trypanosoma brucei [3]) of the same compound?
Answer: 21 µM

Question: What about the IC50 (Trypanosoma brucei [4]) of the same compound?
Answer: 18 µM

Question: What about the IC50 (NCI-H157) of the same compound?
Answer: > 10 µM

Question: What about the IC50 (NCH82) of the same compound?
Answer: 9 µM

Question: How did the IC50 (Trypanosoma brucei [1]) turn out when `CCNCCCNCCCNCCCNCC1CC1` was run?
Answer: > 100 µM

Question: And the IC50 (Trypanosoma brucei [2])?
Answer: > 100 µM

Question: And the IC50 (Trypanosoma brucei [3])?
Answer: > 100 µM

Question: What about the IC50 (Trypanosoma brucei [4]) of the same compound?
Answer: > 100 µM

Question: And the IC50 (NCI-H157)?
Answer: 0.4 µM

Question: What about the IC50 (NCH82) of the same compound?
Answer: 0.7 µM

Question: With `c1ccc(CNCCCNCCCCCCCNCCCNCc2ccccc2)cc1` as the compound, how does the IC50 (Trypanosoma brucei [1]) read?
Answer: 13 µM

Question: What about the IC50 (Trypanosoma brucei [2]) of the same compound?
Answer: 15.1 µM

Question: What about the IC50 (Trypanosoma brucei [3]) of the same compound?
Answer: 12.3 µM

Question: What about the IC50 (Trypanosoma brucei [4]) of the same compound?
Answer: 14.5 µM

Question: How did the IC50 (NCI-H157) turn out when `CCNCCCNCCCCNCCCNCC` [BIS(ETHYL)SPERMINE] was run?
Answer: 2.9 µM

Question: Which results are given for `CCNCCCNCCCNCCCNCC1CCCCCC1`?
Answer: IC50 (Trypanosoma brucei [1]): > 100 µM; IC50 (Trypanosoma brucei [2]): > 100 µM; IC50 (Trypanosoma brucei [3]): > 100 µM; IC50 (Trypanosoma brucei [4]): > 100 µM; IC50 (NCI-H157): 0.5 µM; IC50 (NCH82): 1.7 µM

Question: Which results are given for `C#CCNCCCNCCCNCCCNCC`?
Answer: IC50 (Trypanosoma brucei [1]): > 100 µM; IC50 (Trypanosoma brucei [2]): > 100 µM; IC50 (Trypanosoma brucei [3]): > 100 µM; IC50 (Trypanosoma brucei [4]): > 100 µM; IC50 (NCI-H157): 0.7 µM; IC50 (NCH82): 5.2 µM
